The source of these data is US20250019708A1, “METHODS FOR THE TREATMENT OF HRD CANCER AND BRCA-ASSOCIATED CANCER” (INSTITUT CURIE, priority 2021, published 2025).

One experiment relates to NMNAT1−/− RPE-1 cells. Briefly: Survival assay with PARP inhibitor. It counts as cell-based. The note with it: versus WT RPE-1; FIG. 1g. An excerpt:
FIG. 1: a, Quantification (left) and representative images (right) of clonogenic formation of wild type (WT) and BRCA2^−/− (clones C1 and C2) RPE-1 cells with and without BRCA2 cDNA complementation, after transfection with the indicated NMNAT1 siRNAs. b, Clonogenic formation (left) and WB-analysis (right) of BRCA2 mAID HeLa cells in the presence or absence of auxin (IAA) after transduction with viral particles carrying NMNAT1 shRNA or control. c, Clonogenic formation of WT and BRCA1^−/− RPE-1 cells after transfection with siNMNAT1 #2. d, Clonogenic formation of WT and NMNAT1^−/− RPE-1 cells after transfection with the indicated BRCA1/2 siRNAs. e, Quantification (left) and representative images (right) of clonogenic formation of the indicated HR-proficient and HR-deficient cells upon siNMNAT1. f, DNA damage quantification by alkaline COMET assay of P53−/− RPE-1 cells in the presence or absence of NMNAT1. g, Survival assay of WT and NMNAT1^−/− RPE-1 cells exposed to the indicated doses of the PARP inhibitor rucaparib (PARPi).
Accumulation of DNA lesions can result in increased sensitivity to genotoxic drugs. Given that NMNAT1 functions upstream of PARP1 by providing NAD^+, the reduced PARP1 activity upon NMNAT1 loss might account for the observed synthetic lethality between NMNAT1 and BRCA.

Experiment [1] deals with PARPi-resistant OVCAR8 xenografts. The experiment is described as follows: PARPi-resistant xenograft tumor growth and survival. Format: in vivo, athymic nude mice. The note with it: versus vehicle; FIG. 6A. An excerpt: FIG. 6: NMNAT1 inhibition kills PARPi-resistant HRD tumors in vivo. A. Growth (relative tumor volume, RTV) of parental and PARPi-resistant OVCAR8 xenografts in vivo upon PARPi (rucaparib) or vehicle treatment. B, Growth (relative tumor volume, RTV) of PARPi-resistant OVCAR8 xenografts in vivo. C, Relative tumour volumes (RTV) for individual mice treated in B after five weeks of treatment. D, Overall survival for mice bearing PARPi-resistant OVCAR8 xenografts treated with vehicle or doxycycline. For data shown in FIG. 6, the PARPi-resistant OVCAR8 cells were xenotransplanted subcutaneously in athymic nude mice. Doxycycline was supplemented in the food (625 p.p.m.).
To translate these findings into a translational setting, the inventors derived a PARPi-resistant clone from the PARPi-naive BRCA1-deficient OVCAR8 lines, expressed either doxycycline-inducible NMNAT1 or scrambled (Scr) shRNA in these cells, and xenograft them in athymic nude mice.
As expected the OVCAR8 PARPi-resistant cells were resistant to the PARPi rucaparib in vivo (FIG. 6A).

Consider `CNCc1ccc(-c2[nH]c3cc(F)cc4c3c2CCNC4=O)cc1` [rucaparib], for which the “sensitivity to PARP inhibitor (survival)” value with NMNAT1−/− RPE-1 cells is “sensitized”. Besides, the “response of tumor to PARPi in vivo” value in experiment [1] is recorded as “resistant”.
